ChEMBL document CHEMBL1131679, “Synthesis and activity of sulfonamide-substituted 4,5-diaryl thiazoles as selective cyclooxygenase-2 inhibitors” (Bioorg Med Chem Lett, 1999)

Tests used:
[1] = molecular target: Prostaglandin G/H synthase 1 (Homo sapiens, UniProt P23219)
Description: Inhibition of human Prostaglandin G/H synthase 1

[2] = molecular target: T1, Prostaglandin G/H synthase 2 (Homo sapiens, UniProt P35354); experiment: In vitro inhibitory activity against human Prostaglandin G/H synthase 2 (COX-2)
T1 sequence (P35354 whole entry): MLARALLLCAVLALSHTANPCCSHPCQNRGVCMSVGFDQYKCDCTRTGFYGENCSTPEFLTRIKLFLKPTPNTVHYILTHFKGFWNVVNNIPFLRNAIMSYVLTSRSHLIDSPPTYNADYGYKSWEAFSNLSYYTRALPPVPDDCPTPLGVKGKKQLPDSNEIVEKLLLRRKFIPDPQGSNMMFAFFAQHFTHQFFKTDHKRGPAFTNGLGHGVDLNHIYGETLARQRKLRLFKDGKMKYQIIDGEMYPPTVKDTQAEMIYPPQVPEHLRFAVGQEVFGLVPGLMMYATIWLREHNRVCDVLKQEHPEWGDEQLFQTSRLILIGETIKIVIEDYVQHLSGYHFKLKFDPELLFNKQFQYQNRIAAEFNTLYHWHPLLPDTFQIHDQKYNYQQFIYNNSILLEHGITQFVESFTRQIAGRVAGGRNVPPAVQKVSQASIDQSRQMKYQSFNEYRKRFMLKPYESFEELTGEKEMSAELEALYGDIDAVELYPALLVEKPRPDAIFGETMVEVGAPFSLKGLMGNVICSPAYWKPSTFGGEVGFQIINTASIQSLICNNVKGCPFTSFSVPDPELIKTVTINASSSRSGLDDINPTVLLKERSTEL

[3] = system: Rattus norvegicus; experiment: In vivo activity was determined by rat pouch assay at concentration of 2 mg/kg; assay type: functional

Sequence of Prostaglandin G/H synthase 1 (P23219 whole entry): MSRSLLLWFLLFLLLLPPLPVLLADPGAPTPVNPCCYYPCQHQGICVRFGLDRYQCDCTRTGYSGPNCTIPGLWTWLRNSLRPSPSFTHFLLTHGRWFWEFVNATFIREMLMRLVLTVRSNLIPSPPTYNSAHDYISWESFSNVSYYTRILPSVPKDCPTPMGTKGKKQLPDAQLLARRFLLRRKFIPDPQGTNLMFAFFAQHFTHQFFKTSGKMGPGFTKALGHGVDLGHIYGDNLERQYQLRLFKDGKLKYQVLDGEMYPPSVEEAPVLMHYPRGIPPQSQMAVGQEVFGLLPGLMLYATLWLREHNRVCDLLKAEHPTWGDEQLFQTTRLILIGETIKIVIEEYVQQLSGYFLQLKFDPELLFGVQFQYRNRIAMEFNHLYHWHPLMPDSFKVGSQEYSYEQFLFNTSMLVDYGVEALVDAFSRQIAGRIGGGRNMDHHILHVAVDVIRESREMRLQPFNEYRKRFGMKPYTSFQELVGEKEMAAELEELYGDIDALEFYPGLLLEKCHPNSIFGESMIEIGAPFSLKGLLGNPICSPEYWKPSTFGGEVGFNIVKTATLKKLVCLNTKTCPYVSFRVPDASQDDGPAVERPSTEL

| SMILES | IC50 [1] [nM] | IC50 [2] [nM] | inhibition in vivo at 2 mg/kg [3] [%] |
| --- | --- | --- | --- |
| COc1ccc(-c2nc(NCc3ccccc3)sc2-c2ccc(S(N)(=O)=O)cc2)cc1F | 10 | 59 |  |
| Cc1nc(-c2ccc(S(N)(=O)=O)cc2)c(-c2ccccc2)s1 | 72500 | 29 | 7 |
| Cc1nc(-c2ccc(S(N)(=O)=O)cc2)c(-c2ccc(Cl)cc2)s1 | 35600 | 18 | 30 |
| Cc1nc(-c2ccccc2)c(-c2ccc(S(N)(=O)=O)cc2)s1 | 34000 | 38 | 59 |
| NS(=O)(=O)c1ccc(-c2sc(-c3ccccc3Cl)nc2-c2ccc(F)cc2)cc1 | 80 | 13 | 50 |
| NS(=O)(=O)c1ccc(-c2sc(COc3cc(Cl)cc(Cl)c3)nc2-c2ccc(F)cc2)cc1 | 120 |  |  |
| COc1ccc(-c2nc(-c3ccccc3Cl)sc2-c2ccc(S(N)(=O)=O)cc2)cc1F | > 100000 | 2480 | 33 |
| Cc1nc(-c2ccc(Cl)cc2)c(-c2ccc(S(N)(=O)=O)cc2)s1 | 1840 | 5 | 42 |
| Cc1nc(-c2ccc(S(N)(=O)=O)cc2)c(-c2ccc(Br)cc2)s1 | 115000 | 24 |  |
| COc1ccc(-c2nc(C)sc2-c2ccc(S(N)(=O)=O)cc2)cc1F | 4180 | 28 |  |
